Legend:
ALT-positive cells = conditions: reported in the literature; cited from earlier work
ALT-positive cell lines = assay: CC EATR assay, C-circle content of cells treated with hydroxyurea, 96-well plates; assay type: cell-based, human; conditions: high-throughput format, FIG. 14
Experimental: FIG. 14 depicts the detection of experimentally modulated ALT levels using the CC EATR assay. Treatment of cells with hydroxyurea (HU) decreases ALT levels. […] This experiment was performed in a high-throughput format in a 96-well plates.
For the fluorescence-based detection of RCA-mediated, CC-derived products (FIGS. 3 and 4, illustrating exonuclease digestion from the 5′ or 3′ terminus, respectively), 20 μL of each sample post-RCA (a single reaction per sample) was combined with 20 μL of 0.1 mg/ml BSA, 3 mM DTT, 0.05% Tween, 10 mM Bis-Tris-Propane-HCl, 10 mM MgCl2 (final pH 7.0 at 25 degrees C.), 2.5 U of Exonuclease III or 10 U of T7 Exonuclease (NEB), and 100 nM of (CCCTAA)2 probe labeled at the 5′ end with a 6-Carboxyfluorescein (FAM) fluorophore and a ZEN internal quencher (Integrated DNA Technologies) at the first T position. […] Fluorescence signals were collected using Applied Biosystems StepOnePlus Real-Time PCR system configured to acquire data from FAM/FITC filter sets and the reaction was run at 37° C. for 1 hour with signal being collected at 0 min and then every 15 min thereafter. […]
On day 0, passage 50 U2OS cells were seeded into a 10 cm plate, a 6 well plate, a 24 well plate and a 96 well plate at quantities of 5×10^5, 3×10^5, 1×10^4 and 1×10^4 per well respectively. […]

Q: With `NC(=O)NO` [hydroxyurea] as the compound, how does the “ALT activity of ALT-positive cells upon treatment” value (ALT-positive cells) read?
A: decreased ALT activity

Q: What about the “C-circle content of ALT-positive cell lines after HU treatment” value (ALT-positive cell lines) of the same compound?
A: significant decreases

Reference: patent publication US20170198337A1, “HIGH THROUGHPUT TELOMERIC CIRCLE ASSAY” (SENS FOUNDATION, INC., priority 2014, published 2017)
